Entries after “also recorded” stand apart in the source; their conditions may differ. Where a SMILES comes first, the peptide text is derived from it. The star is where a group is joined. Cbz = O=C(OCc1ccccc1)*; CH2F = FC*
Legend:
melanoma cell lines [1] = assay: CTRP pharmacogenomics drug sensitivity (AUC) across melanoma cell lines grouped by predicted differentiation subtype; assay type: cell-based; details: for specificity of cell death-inducing compound for dedifferentiated melanoma cells: CTRP drug sensitivity profiles by subtype; for sensitivity (CTRP AUC) with increased dedifferentiation status: melanoma cell lines by predicted subtype, ANOVA P<0.01, irrespective of mutation status
Text: Through the prediction of subtypes from the CCLE and GDSC dataset, the inventors utilized the matching drug sensitivity profiles available from the pharmacogenomics-based Cancer Therapeutics Response Portal (CTRP) (Seashore-Ludlow et al., 2015). […] These compounds are erastin, (1S,3R)-RSL3, ML162, and M210 (FIG. 3B).
Dataset from Hoek et al of melanoma cell lines was obtained from GSE4845 and batch normalized using ComBat from the R sva package. Dataset from Mica et al for the melanocyte differentiation stage analysis was obtained from GSE45227. Gene expression profiles from samples representing the growth conditions for each specified stage of differentiation based on the original manuscript was used for analysis (day 0 embryonic stem cell, day 6 neural crest cell, day 11 melanoblast, and day 25 melanocyte). Primary melanocyte expression profiles (adult and neonatal) were used as control. Cell line expression profiles from the CCLE and GSDC databases were downloaded from the respective resource websites (http://www.broadinstitute.org/ccle; http://www.cancerrxgene.org/downloads). For each dataset, microarray probes were collapsed to gene symbol to the maximum average probe. To have a gene list compatible for all datasets used, the inventors took an intersection of genes from both RNASeq and microarray chip platforms, resulting in 10,545 genes.
Principal component analysis (PCA) was performed on mean centered data and all statistical analyses were performed in R (http://www.R-project.org/). Projections were calculated by matrix multiplication of the centered data to be projected using the rotation matrix determined from the PCA of the original source data. ANOVA p-values were determined using the non-parametric Kruskal-Wallis test at a significance threshold of 0.05. Reported p-values between pairs of subtypes were determined using Dunn post-hoc testing with multiple hypothesis correction using the Benjamini & Hochberg method. Heatmaps and figures were generated using pheatmap and ggplot2 R packages.

[2] = system: human melanoma cell lines of the M series; assay: Cell viability dose-response (CellTiter-Glo) across M series melanoma cell lines; assay type: cell-based
Method: (§1) Human melanoma cell lines of the M series were established from patient's biopsies under UCLA IRB approval #11-003254 as previously described (Søndergaard et al., 2010). Cells were cultured in RPMI 1640 with L-glutamine, 10% fetal bovine serum, and 1% penicillin, streptomycin and fungizone in a water-saturated incubator at 37° C. with 5% CO2. Cells were maintained and tested for mycoplasma, and regularly authenticated to their early passages using GenePrint® 10 System (Promega). Presence of mutations in the genes of interest were checked by OncoMap 3 or lontrone, and was confirmed by PCR and Sanger sequencing as previously described (Wong et al., 2014). Vemurafenib (PLX 4032), erastin, Z-VAD-FMK, R428 and piperlongumine were all purchased from Selleck Chemicals. Deferoxamine was obtained from Sigma-Aldrich. Staurosporine was obtained from Cayman Chemicals. Trolox was obtained from Acros Organics. Recombinant TNFα and IFNγ were both obtained from Peprotech. For the BRAFi timecourse study, M229 was treated with vemurafenib or DMSO for the indicated timepoints at twice the 50% inhibition concentration (500 nM). For the crystal violet assays, cells for seeded at low density in 6-well plates. The next day media was replaced by drug media and replenished every 2-3 days. Plates were stained with crystal violet solution (1% crystal violet, 10% methanol). Control wells were grown for 1 week and stained when 100% confluent.
All cell viability assays were assayed in 96-well format with 5000 cells seeded per well. Dose-response curves were assayed using CellTiter-Glo luminescent cell viability assay (Promega, G7572). For all other measurements of viable cells, a fluorescent resazurin-based (Sigma-Aldrich, R7017) assay (AlamarBlue) was used with fluorescence measured at 570/600 ex/em wavelength. Percentage cell viability is reported as a percentage relative to the negative control treatment. Measurement of dead cells per time was measured by incubating treated cells with the IncuCyte Cytotox Red Reagent and imaging with IncuCyte ZOOM Live-Cell Imaging System (Essen BioScience). […]

[3] = system: M229, M397 and M249 melanoma cell lines; assay: Crystal violet staining (clonogenic) assays of long-term or cytokine combination treatment; assay type: cell-based, human
Method: as §1

[4] = system: undifferentiated signature cell lines M296, M410 M229R, and M238R; assay: Cell death and rescue assays (resazurin viability, IncuCyte Cytotox Red, trypan blue exclusion); assay type: cell-based, human
Method: All cell viability assays were assayed in 96-well format with 5000 cells seeded per well. Dose-response curves were assayed using CellTiter-Glo luminescent cell viability assay (Promega, G7572). For all other measurements of viable cells, a fluorescent resazurin-based (Sigma-Aldrich, R7017) assay (AlamarBlue) was used with fluorescence measured at 570/600 ex/em wavelength. Percentage cell viability is reported as a percentage relative to the negative control treatment. Measurement of dead cells per time was measured by incubating treated cells with the IncuCyte Cytotox Red Reagent and imaging with IncuCyte ZOOM Live-Cell Imaging System (Essen BioScience). Trypan blue exclusion was also used for cell death assays.

melanoma cell lines [5] = assay: Immunoblot of differentiation biomarkers (AXL, NGFR, MITF, MART-1) and pERK; assay type: cell-based, human; details: IFNγ=100 U/mL, TNFα=1000 U/mL; M229, M397, M249
Method: Cells were lysed in modified RIPA buffer (50 mM Tris-HCl (pH 7.5), […], 10 mM β-glycerophosphate, 1% NP-40, 0.25% sodium deoxycholate, 10 mM sodium pyrophosphate, 30 mM sodium fluoride, 1 mM EDTA, 1 mM vanadate, 20 μg/ml aprotinin, 20 μg/ml leupeptin, and 1 mM phenylmethylsulfonyl fluoride). Whole-cell lysates were resolved by SDS-PAGE on TruPAGE 4-15% gradient gels (Sigma-Aldrich) and blotted onto nitrocellulose membranes. Membranes were blocked overnight with 5% milk and then incubated sequentially with primary and then IRDye-conjugated secondary antibodies (Li-Cor). Blots were imaged using the Odyssey Infrared Imaging System (Li-Cor). Primary antibodies used for Western blot analysis were MITF (DGG7V, CST), MART-1 (A103, SCBT), and AXL (C89E7, CST).

Molecule	specificity of cell death-inducing compound for dedifferentiated melanoma cells (melanoma cell lines [1])	also measured
NC(=O)Nc1cc(-c2cccc(F)c2)sc1C(=O)N[C@H]1CCCNC1 [AZD7762]	specificity for dedifferentiated melanoma cells	–
O=c1c2ccccc2nc(/C=C/c2cccnc2)n1Cc1ccccc1 [B02]	specificity for dedifferentiated melanoma cells	–
COc1ccc(C2C(C(=O)Nc3ccccc3)=C(C)N=c3sc(=Cc4cn(Cc5ccccc5)c5ccccc45)c(=O)n32)cc1 (stereo not shown) [BCL-LZH-4]	specificity for dedifferentiated melanoma cells	–
Cc1c[nH]c(-c2cnc(NCCNc3ccc(C#N)cn3)nc2-c2ccc(Cl)cc2Cl)n1 [CHIR-99021]	specificity for dedifferentiated melanoma cells	–
O=C(c1ccc(/C=C/c2n[nH]c3ccccc23)cc1)N1CCNCC1 [KW-2449]	specificity for dedifferentiated melanoma cells	–
COc1cc2nccc(Oc3ccc(NC(=O)Nc4ccc(F)cc4F)c(F)c3)c2cc1OC [Ki8751]	specificity for dedifferentiated melanoma cells	–
Cc1onc(C(=O)N2CCN(C(c3ccc(Cl)cc3)c3ccc(Cl)cc3)CC2)c1[N+](=O)[O-] [M210, ML210]	–	sensitivity (CTRP AUC) with increased dedifferentiation status (melanoma cell lines [1]): increased sensitivity
COc1ccc(N(C(=O)CCl)C(C(=O)NCCc2ccccc2)c2cccs2)cc1Cl (stereo not shown) [ML162]	–	sensitivity (CTRP AUC) with increased dedifferentiation status (melanoma cell lines [1]): increased sensitivity
COc1cc(N2CCC(N3CCN(C)CC3)CC2)ccc1Nc1ncc(Cl)c(Nc2ccccc2S(=O)(=O)C(C)C)n1 [NVP-TAE684]	specificity for dedifferentiated melanoma cells	–
COC(=O)c1ccc([C@H]2c3[nH]c4ccccc4c3C[C@H](C(=O)OC)N2C(=O)CCl)cc1 [RSL3, (1S,3R)-RSL3]	–	sensitivity in cell lines with vemurafenib-induced dedifferentiation ([2]; acquired resistance lines (P vs R) or long-term adaptive resistance (44 days)): increased sensitivity; sensitivity with dedifferentiation ([2]; across M series melanoma cell lines): increased sensitivity; sensitivity (CTRP AUC) with increased dedifferentiation status (melanoma cell lines [1]): increased sensitivity; sensitivity upon IFNγ cytokine treatment ([3]; M249, higher doses (5 μM erastin, 500 nM RSL3)): increased sensitivity; long-term persisting cells ([3]; combined with vemurafenib (1 μM), 16-24 days, M229, M397, M249): substantial decrease; cell death compared to cytokine-only or untreated cells ([3]; in the presence of TNFα or IFNγ, 7 days): increased cell death
Cn1cc(-c2ccc3nnc(Sc4ccc5ncccc5c4)n3n2)cn1 [SGX-523]	specificity for dedifferentiated melanoma cells	–
O=C1c2ccccc2-c2nc3nonc3nc21 [SMER-3]	specificity for dedifferentiated melanoma cells	–
CCc1c2c(nc3ccc(O)cc13)-c1cc3c(c(=O)n1C2)COC(=O)[C@]3(O)CC [SN-38]	specificity for dedifferentiated melanoma cells	–
CC1(C)CC(=O)c2c(C(F)(F)F)nn(-c3ccc(C(N)=O)c(N[C@H]4CC[C@H](O)CC4)c3)c2C1 [SNX-2112]	specificity for dedifferentiated melanoma cells	–
CC(C)[C@H](O)C(=O)N[C@@H](C)C(=O)N[C@@H]1C(=O)N(C)CCc2ccccc21 [Semagacestat]	specificity for dedifferentiated melanoma cells	–
Cc1cnc(Nc2ccc(OCCN3CCCC3)cc2)nc1Nc1cccc(S(=O)(=O)NC(C)(C)C)c1 [TG-101348]	specificity for dedifferentiated melanoma cells	–
Cc1c(C)c2c(c(C)c1O)CCC(C)(C(=O)O)O2 (stereo not shown) [Trolox]	–	rescue of erastin-induced decrease in cell viability ([4]; 100 μM DFO or 150 μM Trolox with erastin): almost completely rescued
COC(=O)C[C@H](NC(=O)[C@H](C)NC(=O)[C@@H](NC(=O)OCc1ccccc1)C(C)C)C(=O)CF [Z-VAD-FMK] (Cbz-Val-Ala-Asp(OMe)-CH2F)	–	rescue of apoptosis induced by staurosporine ([4]; trypan blue, 24 hr 1 μM staurosporine, Z-VAD-FMK pre-treatment 1 hr, positive control): could rescue; rescue of death induced by erastin treatment ([4]; trypan blue, 24 hr 5 μM erastin, Z-VAD-FMK pre-treatment 1 hr): could not rescue
Cc1c(N)nc([C@H](CC(N)=O)NC[C@H](N)C(N)=O)nc1C(=O)N[C@H](C(=O)N[C@H](C)[C@@H](O)[C@H](C)C(=O)N[C@H](C(=O)NCCc1nc(-c2nc(C(=O)NCCC[S+](C)C)cs2)cs1)[C@@H](C)O)[C@@H](O[C@@H]1O[C@@H](CO)[C@@H](O)[C@H](O)[C@@H]1O[C@H]1O[C@H](CO)[C@@H](O)[C@H](OC(N)=O)[C@@H]1O)c1c[nH]cn1.[Br-] [bleomycin A2]	specificity for dedifferentiated melanoma cells	–
C=CC(=O)Nc1cc2c(Nc3ccc(F)c(Cl)c3)ncnc2cc1OCCCN1CCOCC1 [canertinib]	specificity for dedifferentiated melanoma cells	–
C=C1[C@@H](C)[C@H]2[C@H](Cc3ccccc3)NC(=O)[C@]23OC(=O)/C=C/[C@H](O)CCC[C@@H](C)C/C=C/[C@H]3[C@@H]1O [cytochalasin B]	specificity for dedifferentiated melanoma cells	–
COC(=O)c1ccc2c(c1)NC(=O)/C2=C(\Nc1ccc(N(C)C(=O)CN2CCN(C)CC2)cc1)c1ccccc1 [nintedanib]	specificity for dedifferentiated melanoma cells	–
O=C(c1cc(Cc2n[nH]c(=O)c3ccccc23)ccc1F)N1CCN(C(=O)C2CC2)CC1 [olaparib]	specificity for dedifferentiated melanoma cells	–
COc1cc(/C=C/C(=O)N2CCC=CC2=O)cc(OC)c1OC [piperlongumine]	–	differentiation stage-associated trend in sensitivity ([2]; among subtypes and vemurafenib resistant lines): does not show any differentiation stage-associated trend; also recorded: no difference in sensitivity
COc1cc(Nc2ncc(F)c(Nc3ccc4c(n3)NC(=O)C(C)(C)O4)n2)cc(OC)c1OC [tamatinib]	specificity for dedifferentiated melanoma cells	–
AZD4547	specificity for dedifferentiated melanoma cells	–
ML334 diastereomer	specificity for dedifferentiated melanoma cells	–
TNFα	–	differentiation state (up-regulation of AXL, decreased MITF or MART-1) (melanoma cell lines [5]): induced de-differentiation
